The target of assay [1] is T1, calcium release by IP3 (IP3 receptor) (Mus musculus, UniProt P11881).
T1 construct: from tissue; host or cells: mouse cerebellum microsomes
Kind of assay: Inhibitory activity against calcium release by IP3 (cerebellum microsomes, fura2). The class given is biochemical. Here is the method: Furthermore, the supernatant was centrifuged (105,000 g, for 60 minutes). […] Then IP3 was added thereto, and the released calcium was measured by the measurement of the fluorescence of 500 nm obtained at 2-wavelength excitation of 340 nm and 380 nm, and the fluorescence ratio F=340/380.
(§1) 2-aminoethyl diphenylborinate was used as a comparative compound.

Assay [2] deals with capacitative calcium entry in cell strain deficient of IP3 receptors produced from DT40. The assay is described as follows: Inhibitory activity against capacitative calcium entry (fura-2 fluorescence ratio). In kind it is cell-based, chickens. To be noted: Gallus gallus. Here is the method:
Fura-2 acetoxymethylester was introduced to the cell strain deficient of IP3 receptors produced from the cultivated cell strain DT40 from chickens. The intracellular calcium concentration was measured by the measurement of the fluorescence of 510 nm obtained at 2-wavelength excitation of 340 nm and 380 nm, and its fluorescence ratio F=340/380.
Intracellular calcium store was depleted by activating tapsigalguine (inhibitor of the endoplasmic reticulum calcium pump) without the presence of the calcium ion in the extracellular fluid.
as §1

The mark [3] stands for this setting: mouse cerebellum microsomes, calcium released with 30 nM of IP3 defined as 100%, read-out: IC50.
Where [4] appears, read: increase rate of intracellular calcium concentration on adding 2 mM calcium chloride after store depletion with tapsigalguine, IP3 receptor-deficient DT40 cells, read-out: IC50.

Read-outs that look alike come from different tables or passages of the source.

T1 sequence (P11881 whole entry): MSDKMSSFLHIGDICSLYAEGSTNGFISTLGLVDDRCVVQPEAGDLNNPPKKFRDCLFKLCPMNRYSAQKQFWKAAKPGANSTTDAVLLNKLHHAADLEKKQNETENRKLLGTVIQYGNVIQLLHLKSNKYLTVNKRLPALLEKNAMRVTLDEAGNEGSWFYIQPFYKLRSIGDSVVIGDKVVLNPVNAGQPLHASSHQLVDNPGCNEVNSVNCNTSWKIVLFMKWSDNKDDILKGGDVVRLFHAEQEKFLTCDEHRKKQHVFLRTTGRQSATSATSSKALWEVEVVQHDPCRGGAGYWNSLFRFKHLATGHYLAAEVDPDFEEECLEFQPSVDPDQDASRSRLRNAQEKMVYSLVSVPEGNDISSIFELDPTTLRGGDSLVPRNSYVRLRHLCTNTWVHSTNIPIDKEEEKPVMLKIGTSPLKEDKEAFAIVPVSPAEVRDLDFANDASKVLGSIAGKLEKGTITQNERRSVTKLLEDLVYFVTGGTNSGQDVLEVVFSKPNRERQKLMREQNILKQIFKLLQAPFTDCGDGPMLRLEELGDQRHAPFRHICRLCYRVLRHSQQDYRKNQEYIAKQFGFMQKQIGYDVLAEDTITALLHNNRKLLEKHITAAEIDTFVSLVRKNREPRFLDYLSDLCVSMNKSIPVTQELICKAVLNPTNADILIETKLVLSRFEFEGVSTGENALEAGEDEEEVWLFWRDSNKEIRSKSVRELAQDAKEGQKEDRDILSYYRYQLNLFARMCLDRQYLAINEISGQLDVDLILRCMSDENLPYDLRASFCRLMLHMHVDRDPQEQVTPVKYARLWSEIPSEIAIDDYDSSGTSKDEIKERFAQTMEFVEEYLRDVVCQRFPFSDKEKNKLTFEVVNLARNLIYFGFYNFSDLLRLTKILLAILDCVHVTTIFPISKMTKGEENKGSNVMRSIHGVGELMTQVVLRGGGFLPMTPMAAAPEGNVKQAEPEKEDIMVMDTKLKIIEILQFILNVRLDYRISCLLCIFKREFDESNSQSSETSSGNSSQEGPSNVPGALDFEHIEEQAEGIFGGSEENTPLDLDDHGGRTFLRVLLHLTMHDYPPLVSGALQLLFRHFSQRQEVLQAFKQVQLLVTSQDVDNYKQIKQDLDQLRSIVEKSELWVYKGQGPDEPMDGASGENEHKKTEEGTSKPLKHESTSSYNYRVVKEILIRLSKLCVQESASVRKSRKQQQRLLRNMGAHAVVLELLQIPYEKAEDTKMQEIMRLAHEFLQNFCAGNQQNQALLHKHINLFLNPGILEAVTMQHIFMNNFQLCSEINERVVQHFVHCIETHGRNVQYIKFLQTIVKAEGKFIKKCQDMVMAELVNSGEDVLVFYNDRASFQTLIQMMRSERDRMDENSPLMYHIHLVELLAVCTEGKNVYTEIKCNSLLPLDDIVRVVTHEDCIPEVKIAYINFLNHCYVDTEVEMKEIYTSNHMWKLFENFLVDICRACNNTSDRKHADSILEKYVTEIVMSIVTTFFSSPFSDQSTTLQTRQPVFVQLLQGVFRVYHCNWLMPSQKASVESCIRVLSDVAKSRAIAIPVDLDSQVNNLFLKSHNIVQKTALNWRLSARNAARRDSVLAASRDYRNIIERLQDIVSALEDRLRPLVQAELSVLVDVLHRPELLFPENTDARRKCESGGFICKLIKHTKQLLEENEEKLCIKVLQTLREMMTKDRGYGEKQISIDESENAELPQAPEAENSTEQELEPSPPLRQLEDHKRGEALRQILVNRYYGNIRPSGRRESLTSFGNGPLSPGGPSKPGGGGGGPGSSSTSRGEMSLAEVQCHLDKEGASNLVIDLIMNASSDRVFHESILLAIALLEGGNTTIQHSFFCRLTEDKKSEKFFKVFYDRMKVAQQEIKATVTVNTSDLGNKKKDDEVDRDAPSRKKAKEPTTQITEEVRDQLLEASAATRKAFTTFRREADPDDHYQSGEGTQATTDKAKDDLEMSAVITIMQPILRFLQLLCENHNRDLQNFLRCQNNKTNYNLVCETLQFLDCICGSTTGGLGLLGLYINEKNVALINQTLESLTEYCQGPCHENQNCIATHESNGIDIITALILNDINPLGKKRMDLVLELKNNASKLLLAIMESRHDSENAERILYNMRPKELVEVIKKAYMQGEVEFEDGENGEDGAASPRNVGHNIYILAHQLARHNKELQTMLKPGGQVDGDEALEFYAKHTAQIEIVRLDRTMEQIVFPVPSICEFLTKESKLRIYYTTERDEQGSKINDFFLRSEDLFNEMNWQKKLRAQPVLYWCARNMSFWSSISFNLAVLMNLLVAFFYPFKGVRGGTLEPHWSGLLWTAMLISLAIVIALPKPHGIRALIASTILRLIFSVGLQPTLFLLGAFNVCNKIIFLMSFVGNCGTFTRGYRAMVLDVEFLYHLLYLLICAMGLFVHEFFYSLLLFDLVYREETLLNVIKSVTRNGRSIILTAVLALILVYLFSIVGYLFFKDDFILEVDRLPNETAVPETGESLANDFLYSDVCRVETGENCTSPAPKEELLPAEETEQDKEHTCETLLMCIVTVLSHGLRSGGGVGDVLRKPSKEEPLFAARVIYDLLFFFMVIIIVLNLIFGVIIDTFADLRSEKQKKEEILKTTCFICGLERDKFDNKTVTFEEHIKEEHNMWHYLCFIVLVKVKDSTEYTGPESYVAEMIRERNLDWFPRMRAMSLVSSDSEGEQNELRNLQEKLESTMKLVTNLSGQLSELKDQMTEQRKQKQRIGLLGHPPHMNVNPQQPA

One may read the IC50 as the midpoint of a concentration-inhibition curve. With `CC(C)(C)c1ccc(B(OCCN)c2ccc(Cl)cc2)cc1` [(84), 2-aminoethyl (4-chlorophenyl)(4-(1,1′-dimethylethyl)phenyl)borate], the half-maximal inhibitory concentration (IC50) in assay [1] (setting [3]) worked out at 4.5 µM.

Regarding `Cc1ccc(B(OC(C)c2ccccn2)c2ccc(C)c(Cl)c2)cc1Cl` (stereo not shown) [Compound (53), 1-(2-pyridyl)ethyl bis(3-chloro-4-methylphenyl)borate], the half-inhibitory concentration (IC50) in assay [1] (setting [3]) came to 3.6 µM; in assay [2] (setting [4]), 0.63 µM.

With `NCCOB(c1ccccc1)c1ccccc1` [Comparative Compound, 2-aminoethyl diphenylborinate, reference compound], the IC50 in assay [1] turned out to be 20 µM; in assay [2] (DT40) it was 5 µM.

For `OB(c1ccc(Cl)cc1)c1ccc(COCc2ccccc2)cc1` [(3), (4-chlorophenyl)(4-benzyloxymethylphenyl)borate], in assay [1] (setting [3]), the IC50 is 3 µM.

Turning to `Cc1ccc(B(OCCN)c2ccc(C)c(Cl)c2)cc1Cl` [(30), 2-aminoethyl bis(3-chloro-4-methylphenyl)borate], the concentration for half-maximal inhibition (IC50) in assay [1] (setting [3]) was 2.6 µM.

As for `NCCOB(C1CCCC1)C1CCCC1` [(25), 2-aminoethyl dicyclopentylborate], the IC50 in assay [2] (setting [4]) is 0.66 µM.

As for `NCCOB(c1ccccc1)c1ccc(COCc2ccc(B(OCCN)c3ccccc3)cc2)cc1` [Compound (90), bis[4-[(2-aminoethoxy)phenylboryl]benzyl]ether], the IC50 came to 6 µM in assay [1] (setting [3]) and 0.059 µM in assay [2] (setting [4]).

On to `Cc1ccc(B(OC(c2ccc(C(F)(F)F)cc2)c2ccccn2)c2ccc(C)c(Cl)c2)cc1Cl` (stereo not shown) [(62), 1-(4-trifluoromethylphenyl)-1-(2-pyridyl)methyl bis(3-chloro-4-methylphenyl)borate], for which the IC50 in assay [2] (setting [4]) was 0.13 µM.

As to `CCOC(=O)N1CCC(NCC(OB(c2ccc(C)c(Cl)c2)c2ccc(C)c(Cl)c2)c2ccccc2)CC1` (stereo not shown) [(47), 1-phenyl-2-(1-(ethoxycarbonyl)-piperidine-4-ylamino)ethyl bis(3-chloro-4-methylphenyl)borate], in assay [1] (setting [3]), the half-inhibitory concentration (IC50) turned out to be 3.8 µM.

As to `Cc1ccc(B(OC(CN(C)C)CN(C)C)c2ccc(C)c(Cl)c2)cc1Cl` [(60), 1-(dimethylaminomethyl)-2-dimethylaminoethyl bis(3-chloro-4-methylphenyl)borate], the half-inhibitory concentration (IC50) in assay [2] (setting [4]) turned out to be 0.35 µM.

The values above are taken from patent publication US7217701B2, “Intracellular calcium concentration increase inhibitors” (Katsuhiko Mikoshiba, priority 2001, dated 2007).
